Reference: patent US20250197372A1 (priority 2020, published 2025)

Tests used:
[1] = target: recombinant human GAA (acid alpha-glucosidase) (Homo sapiens, UniProt P10253); assay: Acid alpha-glucosidase (GAA) assay (4-methylumbelliferyl-alpha-D-pyranoside substrate, fluorescence); format: biochemical
Protocol: Acid alpha-glucosidase (GAA): To analyze inhibitory effects of a test compound, commercially available recombinant human GAA was incubated with multiple dilutions of test compound for 60 minutes at 37° C. 4-methylumbelliferyl-alpha-D-pyranoside was then introduced to the mixture as the substrate. 1,4-methyllumbelliferone is generated, and after an incubation for 20 minutes at 37° C., the reaction was stopped with the stop solution (0.5M glycine 0.3M NaOH pH 10). 1,4-methyllumbelliferone is detected by fluorescence (excitation at 365 nm, emission at 440 nm). Relative fluorescence compared to untreated enzymatic activity and test compound concentration is plotted as a function of percent inhibition. The IC50 is determined using a 4-PL curve fit as the measure of relative inhibitory activity of each test compound (see Table 3).

[2] = target: rat sucrase (partially purified alpha-glucosidase from intestinal rat powder) (Rattus norvegicus, UniProt P23739); assay: Intestinal alpha-glucosidase assay, sucrose substrate (Glucose GO Kit); format: biochemical
Protocol: Intestinal alpha-glucosidases (rat maltase and sucrase): Intestinal alpha-glucosidases act upon 1,4-alpha-glucoside bonds, breaking down disaccharides to glucose. To perform this assay, partially purified alpha-glucosidase from intestinal rat powder was incubated for 60 minutes at 37° C. with multiple dilutions of test compounds. Maltose or Sucrose respectively was then introduced as substrate to the mixture and incubated for 30 minutes at 37° C. The reaction was stopped by a 5-minute incubation at 90° C. and the resultant glucose production is detected using Sigma's Glucose GO Kit. Percent inhibition was then plotted as a function of concentration for each test compound. The IC50 was determined using a 4-PL curve fit and serves as the measure of relative inhibition of each test compound (see Table 3).

Sequence of rat sucrase (partially purified alpha-glucosidase from intestinal rat powder) (P23739 whole entry): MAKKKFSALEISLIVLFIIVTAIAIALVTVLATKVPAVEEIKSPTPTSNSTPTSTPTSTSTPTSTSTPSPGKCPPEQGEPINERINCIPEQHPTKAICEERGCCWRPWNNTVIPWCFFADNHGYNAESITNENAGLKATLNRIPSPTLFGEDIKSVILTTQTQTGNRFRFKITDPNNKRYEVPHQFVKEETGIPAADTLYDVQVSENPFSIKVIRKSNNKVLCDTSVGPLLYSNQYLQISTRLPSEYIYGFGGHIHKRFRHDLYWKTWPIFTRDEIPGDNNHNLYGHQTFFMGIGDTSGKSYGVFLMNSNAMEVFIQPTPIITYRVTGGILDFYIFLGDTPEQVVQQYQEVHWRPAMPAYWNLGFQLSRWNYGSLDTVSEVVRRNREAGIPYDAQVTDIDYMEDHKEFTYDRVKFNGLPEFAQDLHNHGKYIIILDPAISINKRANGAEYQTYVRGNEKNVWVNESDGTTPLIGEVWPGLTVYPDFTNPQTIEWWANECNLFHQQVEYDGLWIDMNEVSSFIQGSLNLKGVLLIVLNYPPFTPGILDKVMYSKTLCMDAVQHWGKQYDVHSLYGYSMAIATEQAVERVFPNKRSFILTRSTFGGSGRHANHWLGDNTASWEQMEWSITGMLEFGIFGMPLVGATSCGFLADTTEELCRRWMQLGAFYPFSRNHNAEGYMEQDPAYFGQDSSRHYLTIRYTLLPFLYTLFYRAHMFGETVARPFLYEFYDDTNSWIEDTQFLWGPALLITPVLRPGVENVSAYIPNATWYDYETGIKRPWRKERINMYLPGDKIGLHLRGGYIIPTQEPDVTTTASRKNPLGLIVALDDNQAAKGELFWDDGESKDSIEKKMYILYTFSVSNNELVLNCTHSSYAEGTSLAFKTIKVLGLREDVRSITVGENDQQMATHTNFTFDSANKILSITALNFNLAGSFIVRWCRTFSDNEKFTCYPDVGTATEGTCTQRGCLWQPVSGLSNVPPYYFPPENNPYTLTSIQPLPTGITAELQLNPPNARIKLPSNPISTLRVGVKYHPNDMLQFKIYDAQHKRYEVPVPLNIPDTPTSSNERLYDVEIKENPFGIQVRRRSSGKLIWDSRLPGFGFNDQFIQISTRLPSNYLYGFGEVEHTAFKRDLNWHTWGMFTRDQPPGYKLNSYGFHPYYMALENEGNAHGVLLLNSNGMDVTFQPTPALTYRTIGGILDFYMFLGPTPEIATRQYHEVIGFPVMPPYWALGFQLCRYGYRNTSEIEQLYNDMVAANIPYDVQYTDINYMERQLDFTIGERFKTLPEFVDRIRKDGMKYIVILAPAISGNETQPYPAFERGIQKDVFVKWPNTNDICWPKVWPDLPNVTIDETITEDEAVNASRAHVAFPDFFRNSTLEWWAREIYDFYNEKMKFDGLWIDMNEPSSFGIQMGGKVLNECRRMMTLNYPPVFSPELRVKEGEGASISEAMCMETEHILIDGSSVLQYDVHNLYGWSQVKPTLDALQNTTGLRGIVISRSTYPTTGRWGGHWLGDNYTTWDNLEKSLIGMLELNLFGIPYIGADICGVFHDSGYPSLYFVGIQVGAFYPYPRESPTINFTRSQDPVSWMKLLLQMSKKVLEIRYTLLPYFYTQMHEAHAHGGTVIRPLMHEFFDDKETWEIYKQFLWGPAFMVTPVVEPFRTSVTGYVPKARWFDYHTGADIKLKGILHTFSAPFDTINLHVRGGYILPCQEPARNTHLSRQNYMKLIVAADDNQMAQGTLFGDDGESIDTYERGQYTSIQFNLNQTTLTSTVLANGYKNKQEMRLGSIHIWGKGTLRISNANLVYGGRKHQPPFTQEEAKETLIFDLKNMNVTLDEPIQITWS

SMILES | IC50 [1] | IC50 [2]
OC[C@@H]1[C@@H](O)[C@H](O)[C@@H](O)CN1Cc1ccc(CNc2cc(-c3cccnn3)cc(C3CC3)c2)cc1 [Compound 1012, (2R,3R,4R,5S)-1-{[4-({[3-cyclopropyl-5-(pyridazin-3-yl)phenyl]amino}methyl)phenyl]methyl}-2-(hydroxymethyl)piperidine-3,4,5-triol] | 350 nM | 33 nM
O=[N+]([O-])c1cc(CCO)ccc1NCCCCCCN1C[C@H](O)[C@@H](O)[C@H](O)[C@H]1CO [Compound 1292, (2R,3R,4R,5S)-1-(6-{[4-(2-hydroxyethyl)-2-nitrophenyl]amino}hexyl)-2-(hydroxymethyl)piperidine-3,4,5-triol] | 28 nM | 40 nM
[N-]=[N+]=Nc1ccc(NCc2cccc(CN3C[C@H](O)[C@@H](O)[C@H](O)[C@H]3CO)c2)c([N+](=O)[O-])c1 [Compound 1169, (2R,3R,4R,5S)-1-[(3-{[(4-azido-2-nitrophenyl)amino]methyl}phenyl)methyl]-2-(hydroxymethyl)piperidine-3,4,5-triol] | 420 nM | < 1 nM
[N-]=[N+]=Nc1ccc(NCc2ccc(-c3ccc(CN4C[C@H](O)[C@@H](O)[C@H](O)[C@H]4CO)cc3)cc2)c([N+](=O)[O-])c1 [Compound 1166, (2R,3R,4R,5S)-1-[(4′-{[(4-azido-2-nitrophenyl)amino]methyl}-[1,1′-biphenyl]-4-yl)methyl]-2-(hydroxymethyl)piperidine-3,4,5-triol] | 1380 nM | 156 nM
OC[C@@H]1[C@@H](O)[C@H](O)[C@@H](O)CN1CCc1ccc(CCNc2cc(Cl)cc(-c3ncccn3)c2)cc1 [Compound 1162, (2R,3R,4R,5S)-1-{2-[4-(2-{[3-chloro-5-(pyrimidin-2-yl)phenyl]amino}ethyl)phenyl]ethyl}-2-(hydroxymethyl)piperidine-3,4,5-triol] | 62 nM | 476 nM
O=[N+]([O-])c1cc(C2CC2)ccc1NCCCCCCN1C[C@H](O)[C@@H](O)[C@H](O)[C@H]1CO [Compound 1136, (2R,3R,4R,5S)-1-{6-[(4-cyclopropyl-2-nitrophenyl)amino]hexyl}-2-(hydroxymethyl)piperidine-3,4,5-triol] | 9 nM | < 1 nM
[N-]=[N+]=Nc1ccc(NCCc2cnn(CCN3C[C@H](O)[C@@H](O)[C@H](O)[C@H]3CO)c2)c([N+](=O)[O-])c1 [Compound 1191, (2R,3R,4R,5S)-1-[2-(4-{2-[(4-azido-2-nitrophenyl)amino]ethyl}-1H-pyrazol-1-yl)ethyl]-2-(hydroxymethyl)piperidine-3,4,5-triol] | 2740 nM | 2010 nM
COc1cc(NCCCCCCN2C[C@H](O)[C@@H](O)[C@H](O)[C@H]2CO)cc(C2=CCCCC2)c1 [Compound 1149, (2R,3R,4R,5S)-1-(6-{[3-(cyclohex-1-en-1-yl)-5-methoxy-phenyl]amino}hexyl)-2-(hydroxymethyl)piperidine-3,4,5-triol] | 66 nM | < 1 nM
O=Cc1cc(-c2ncccn2)ccc1NCCCCCCN1C[C@H](O)[C@@H](O)[C@H](O)[C@H]1CO [Compound 1184, 5-(pyrimidin-2-yl)-2-({6-[(2R,3R,4R,5S)-3,4,5-trihydroxy-2-(hydroxymethyl)piperidin-1-yl]hexyl}amino)benzaldehyde] | 48 nM | 65 nM
OC[C@@H]1[C@@H](O)[C@H](O)[C@@H](O)CN1CCc1ccc(CCNc2cc(Cl)cc(-c3cccnn3)c2)cc1 [Compound 1163, (2R,3R,4R,5S)-1-{2-[4-(2-{[3-chloro-5-(pyridazin-3-yl)phenyl]amino}ethyl)phenyl]ethyl}-2-(hydroxymethyl)piperidine-3,4,5-triol] | 93 nM | 584 nM
CS(=O)(=O)c1cc(Br)cc(NCc2cccc(CN3C[C@H](O)[C@@H](O)[C@H](O)[C@H]3CO)c2)c1 [Compound 1022, (2R,3R,4R,5S)-1-[(3-{[(3-bromo-5-methanesulfonylphenyl)amino]methyl}phenyl)methyl]-2-(hydroxymethyl)piperidine-3,4,5-triol] | 803 nM | 26 nM
[N-]=[N+]=Nc1ccc(NCCc2cc(CCN3C[C@H](O)[C@@H](O)[C@H](O)[C@H]3CO)ccc2C2CCCCC2)c([N+](=O)[O-])c1 [Compound 1171, (2R,3R,4R,5S)-1-[2-(3-{2-[(4-azido-2-nitrophenyl)amino]ethyl}-4-cyclohexylphenyl)ethyl]-2-(hydroxymethyl)piperidine-3,4,5-triol] | 2080 nM | 10700 nM
O=[N+]([O-])c1cc(N2C3CCC2COC3)ccc1NCc1ccc(CN2CC(O)C(O)C(O)C2CO)cc1 (stereo in doubt) [Compound 1018, (2S,3S,4S,5R)-2-(hydroxymethyl)-1-({4-[({2-nitro-4-[(1R,5S)-3-oxa-8-azabicyclo[3.2.1]octan-8-yl]phenyl}amino)methyl]phenyl}methyl) piperidine-3,4,5-triol] | 44 nM | < 1 nM
C[C@@H]1CN(c2ccc(NCc3ccc(CN4C[C@H](O)[C@@H](O)[C@H](O)[C@H]4CO)cc3)c([N+](=O)[O-])c2)C[C@H](C)O1 [Compound 1014] | 30 nM | 15 nM
CCCc1nc(-c2cc(Cl)cc(NCCc3ccc(CCN4C[C@H](O)[C@@H](O)[C@H](O)[C@H]4CO)cc3)c2)no1 [Compound 1123, (2R,3R,4R,5S)-1-{2-[4-(2-{[3-chloro-5-(5-propyl-1,2,4-oxadiazol-3-yl)phenyl]amino}ethyl)phenyl]ethyl}-2-(hydroxymethyl)piperidine-3,4,5-triol] | 700 nM | 2810 nM
[N-]=[N+]=Nc1ccc(NCCc2ccc(CCN3C[C@H](O)[C@@H](O)[C@H](O)[C@H]3CO)cc2)c([N+](=O)[O-])c1 [Compound 1200, (2R,3R,4R,5S)-1-[2-(4-{2-[(4-azido-2-nitrophenyl)amino]ethyl}phenyl)ethyl]-2-(hydroxymethyl)piperidine-3,4,5-triol] | 1160 nM | 746 nM
[N-]=[N+]=Nc1ccc(NCCc2cncc(CCN3C[C@H](O)[C@@H](O)[C@H](O)[C@H]3CO)n2)c([N+](=O)[O-])c1 [Compound 1187, (2R,3R,4R,5S)-1-[2-(6-{2-[(4-azido-2-nitrophenyl)amino]ethyl}pyrazin-2-yl)ethyl]-2-(hydroxymethyl)piperidine-3,4,5-triol] | 615 nM | 2050 nM
CS(=O)(=O)c1cc(NCc2cccc(CN3C[C@H](O)[C@@H](O)[C@H](O)[C@H]3CO)c2)cc(-c2ncccn2)c1 [Compound 1041, (2R,3R,4R,5S)-2-(hydroxymethyl)-1-{[3-({[3-methanesulfonyl-5-(pyrimidin-2-yl)phenyl]amino}methyl)phenyl]methyl}piperidine-3,4,5-triol] | 1880 nM | 187 nM
CC(=O)Nc1cc(NCCCCCCN2C[C@H](O)[C@@H](O)[C@H](O)[C@H]2CO)cc(-c2ncccn2)c1 [Compound 1125, N-[3-(pyrimidin-2-yl)-5-({6-[(2R,3R,4R,5S)-3,4,5-trihydroxy-2-(hydroxymethyl)piperidin-1-yl]hexyl}amino)phenyl]acetamide] | 80 nM | 92 nM
COc1cc(Cc2ccccc2)cc(NCCCCCCN2C[C@H](O)[C@@H](O)[C@H](O)[C@H]2CO)c1 [Compound 1145, (2R,3R,4R,5S)-1-{6-[(3-benzyl-5-methoxyphenyl)amino]hexyl}-2-(hydroxymethyl)piperidine-3,4,5-triol] | 60 nM | 3 nM
[N-]=[N+]=Nc1ccc(NCCc2nccc(CCN3C[C@H](O)[C@@H](O)[C@H](O)[C@H]3CO)n2)c([N+](=O)[O-])c1 [Compound 1188, (2R,3R,4R,5S)-1-[2-(2-{2-[(4-azido-2-nitrophenyl)amino]ethyl}pyrimidin-4-yl)ethyl]-2-(hydroxymethyl)piperidine-3,4,5-triol] | 838 nM | 783 nM
OC[C@@H]1[C@@H](O)[C@H](O)[C@@H](O)CN1CCCCCCNc1ccc(-c2cccnn2)cc1Cl [Compound 1202, (2R,3R,4R,5S)-1-(6-{[2-chloro-4-(pyridazin-3-yl)phenyl]amino}hexyl)-2-(hydroxymethyl)piperidine-3,4,5-triol] | 39 nM | < 1 nM
OC[C@@H]1[C@@H](O)[C@H](O)[C@@H](O)CN1Cc1ccc(CNc2cc(C3CC3)cc(N3CCOCC3)c2)cc1 [Compound 1010, (2R,3R,4R,5S)-1-{[4-({[3-cyclopropyl-5-(morpholin-4-yl)phenyl]amino}methyl)phenyl]methyl}-2-(hydroxymethyl)piperidine-3,4,5-triol] | 359 nM | 96 nM
CC(C)(C)c1cc(NCCCCCCN2C[C@H](O)[C@@H](O)[C@H](O)[C@H]2CO)cc(-c2ncccn2)c1 [Compound 1151, (2R,3R,4R,5S)-1-(6-{[3-tert-butyl-5-(pyrimidin-2-yl)phenyl]amino}hexyl)-2-(hydroxymethyl)piperidine-3,4,5-triol] | 24 nM | < 1 nM
[N-]=[N+]=Nc1ccc(NCCc2ccc(CCN3C[C@H](O)[C@@H](O)[C@H](O)[C@H]3CO)s2)c([N+](=O)[O-])c1 [Compound 1186, (2R,3R,4R,5S)-1-[2-(5-{2-[(4-azido-2-nitrophenyl)amino]ethyl}hiophen-2-yl)ethyl]-2-(hydroxymethyl)piperidine-3,4,5-triol] | 263 nM | 175 nM
